Measurements taken from US20230106102A1, “METHOD OF PRODUCING TRICHODESMA KHASIANUM CLARKE LEAF EXTRACTS AND APPLICATION OF THE SAME” (BAI-CHUNG-REN Foodstuff.Co.Ltd, priority 2021, published 2023).
Marks after values point to notes of the source that are not given here.

Experiments:
Type in all cases: in vivo
[1] = Calorie intake, alcohol intake and body weight of mice fed alcohol liquid diet; details: for Body weight: RA group
Protocol: In the design of this study, male mice of C57BL/6J strain are eight weeks old and are pre-bred for two weeks before starting the experiment to allow the animals to adapt to the environment, and observe whether the animals are abnormal daily. Raising at a relative humidity of 60%, 23±1° C., 12-hour light cycle (8:00-20:00), unlimited feed and water for rodents. The establishment and experimental grouping of liver injury and fatigue model animals. The trichodesma khasianum […] extract powders explore the effect of alcohol liquid diet on fatty liver and liver damage in mice, male mice of the C57BL/6J strain of 8 weeks old, are given special diet for experimental animals (Laboratory Rodent Diet) during the 2 week adaptation period. After one week, the body weight reached 20g, and the group is tested and started to be fed with standard alcoholic liquid model feed (Lieber-DeCarli Regular Control (DYET#710027)) or ethanol feed (Ethanol Diet (DYET#710260)), food and water are not restricted. The test is carried out for six weeks. The test substance is given a fixed daily dose by tube feeding. The dosage conversion refers to the US Food and Drug Administration announcement (US FDA, 2005), based on a 60 kg adult, the recommended daily body weight per kg 12.3 times the intake is the dose for mice. The animal experiment is divided into five groups, and each group has 8 mice, so there are […] mice, including normal group (NOR group), alcohol group (ALD group), low dose of the trichodesma khasianum […] extract powder (TL group) and high dose group of the trichodesma khasianum […] extract powder (TH group), and rosmarinic acid group (RA group). The recommended daily intake of the trichodesma khasianum […] extract powders are 2 g per day. After the animal experiment dose is converted, the one-time dose is […], and the […]-time dose is 0.82 g/kg. After fasting for 12 hours, the experimental animals are sacrificed by carbon dioxide asphyxiation, and blood and liver tissues are collected. After the blood is centrifuged, the serum is collected for biochemical analysis. The surface of the tissue is cleaned with saline solution, dried with a paper towel and weighed, then the tissue of the second largest leaf of the liver is cut and placed in a tissue embedding basin soaked in 10% formalin for paraffin embedding and sectioning so as to have tissue staining analysis. Finally, all remained livers are cleaned internally with 0.9% saline and stored in a -80° C. refrigerator for later use. The aforementioned test items of liver function in serum are aspartate aminotransferase (AST), alanine aminotransferase (ALT) and alkaline phosphatase (ALP) which are tested by using biochemical automatic analyzer (Beckman-700, Fullerton, Calif., USA). The test items of a concentration of lipid in blood are total cholesterol (TC) and triglyceride (TG) in serum, wherein a concentration of the total cholesterol is analyzed by using commercially available biochemical reagents (BXC 0261, Fortress), and a concentration of the biochemical reagents (BXC 0271, Fortress) is analyzed by triglyceride. The test items of a concentration of liver lipid are total cholesterol and triglycerides, wherein a concentration of the total cholesterol of the liver lipid is analyzed by using commercially available biochemical reagents (BXC 0261, Fortress), and a concentration of the biochemical reagents (BXC 0271, Fortress) of the liver lipid is analyzed by triglyceride. A production of lipid peroxide malondialdehyde (MDA) is determined by way of thiobarbituric acid (thiobarbituric acid) color method, wherein the more the product of lipid peroxide malondialdehyde is, the higher the absorbance value produces. Therefore, when the sample is capable of reducing the absorbance value of the system, it means that an anti-oxidant effect is formed. […]

[2] = test system: mice with alcohol-induced liver injury; assay: Liver weight / body weight ratio (liver enlargement) in mice fed alcohol liquid diet; details: p<0.05
Protocol: (§1) In the design of this study, male mice of C57BL/6J strain are eight weeks old and are pre-bred for two weeks before starting the experiment to allow the animals to adapt to the environment, and observe whether the animals are abnormal daily. Raising at a relative humidity of 60%, 23±1° C., 12-hour light cycle (8:00-20:00), unlimited feed and water for rodents. The establishment and experimental grouping of liver injury and fatigue model animals. […] The test items of a concentration of lipid in blood are total cholesterol (TC) and triglyceride (TG) in serum, wherein a concentration of the total cholesterol is analyzed by using commercially available biochemical reagents (BXC 0261, Fortress), and a concentration of the biochemical reagents (BXC 0271, Fortress) is analyzed by triglyceride. The test items of a concentration of liver lipid are total cholesterol and triglycerides, wherein a concentration of the total cholesterol of the liver lipid is analyzed by using commercially available biochemical reagents (BXC 0261, Fortress), and a concentration of the biochemical reagents (BXC 0271, Fortress) of the liver lipid is analyzed by triglyceride. A production of lipid peroxide malondialdehyde (MDA) is determined by way of thiobarbituric acid (thiobarbituric acid) color method, wherein the more the product of lipid peroxide malondialdehyde is, the higher the absorbance value produces. […]

[3] = test system: mice with alcohol-induced liver injury; assay: Serum liver function index (AST, ALT) by biochemical automatic analyzer; details: FIG. 2, extract: TL and TH group, RA group, p<0.05 vs ALD
Protocol: as §1

[4] = test system: Mice with Alcoholic Liver Injury; assay: Serum total cholesterol and triglyceride
Protocol: (§2) In the design of this study, male mice of C57BL/6J strain are eight weeks old and are pre-bred for two weeks before starting the experiment to allow the animals to adapt to the environment, and observe whether the animals are abnormal daily. Raising at a relative humidity of 60%, 23±1° C., 12-hour light cycle (8:00-20:00), unlimited feed and water for rodents. The establishment and experimental grouping of liver injury and fatigue model animals. The trichodesma khasianum […] extract powders explore the effect of alcohol liquid diet on fatty liver and liver damage in mice, male mice of the C57BL/6J strain of 8 weeks old, are given special diet for experimental animals (Laboratory Rodent Diet) during the 2 week adaptation period. After one week, the body weight reached 20g, and the group is tested and started to be fed with standard alcoholic liquid model feed (Lieber-DeCarli Regular Control (DYET#710027)) or ethanol feed (Ethanol Diet (DYET#710260)), food and water are not restricted. The test is carried out for six weeks. The test substance is given a fixed daily dose by tube feeding. The dosage conversion refers to the US Food and Drug Administration announcement (US FDA, 2005), based on a 60 kg adult, the recommended daily body weight per kg 12.3 times the intake is the dose for mice. The animal experiment is divided into five groups, and each group has 8 mice, so there are […] mice, including normal group (NOR group), alcohol group (ALD group), low dose of the trichodesma khasianum […] extract powder (TL group) and high dose group of the trichodesma khasianum […] extract powder (TH group), and rosmarinic acid group (RA group). […] The test items of a concentration of lipid in blood are total cholesterol (TC) and triglyceride (TG) in serum, wherein a concentration of the total cholesterol is analyzed by using commercially available biochemical reagents (BXC 0261, Fortress), and a concentration of the biochemical reagents (BXC 0271, Fortress) is analyzed by triglyceride. The test items of a concentration of liver lipid are total cholesterol and triglycerides, wherein a concentration of the total cholesterol of the liver lipid is analyzed by using commercially available biochemical reagents (BXC 0261, Fortress), and a concentration of the biochemical reagents (BXC 0271, Fortress) of the liver lipid is analyzed by triglyceride. A production of lipid peroxide malondialdehyde (MDA) is determined by way of thiobarbituric acid (thiobarbituric acid) color method, wherein the more the product of lipid peroxide malondialdehyde is, the higher the absorbance value produces. Therefore, when the sample is capable of reducing the absorbance value of the system, it means that an anti-oxidant effect is formed. […]

[5] = test system: Mice with Alcoholic Liver Injury; assay: Liver total cholesterol and triglyceride; details: RA group
Protocol: as §2

[6] = test system: Mice with Alcoholic Liver Injury; assay: Liver lipid peroxidation (MDA, thiobarbituric acid color method); details: RA group
Protocol: as §1

[7] = test system: mice with alcohol-induced liver injury; assay: Liver pathological section, H&E stain; details: FIG. 3, extract: TL and TH group, RA group
Protocol: as §1

[8] = RA group, alcohol liquid diet six weeks
[9] = extract high dose (TH group) or RA group
[10] = extract: TL and TH group, p<0.05

With O=C(/C=C/c1ccc(O)c(O)c1)O[C@H](Cc1ccc(O)c(O)c1)C(=O)O [RA, rosmarinic acid] the “body weight compared with the alcohol group” value ([1]; 0 to 6 weeks, alcohol feed diet, p>0.05) was “no significant difference”, the Body weight ([1]; Day 0) was 22.3 ± 0.7^a g and the Body weight ([1]; Day 7) was 21.7 ± 0.7^a g. The Body weight ([1]; Day 14) was 20.6 ± 0.5^a g, the Body weight ([1]; Day 21) was 23.3 ± 0.8^a g and the Body weight ([1]; Day 28) was 22.3 ± 0.7^a g. For the same molecule, the Body weight ([1]; Day 35) was 21.6 ± 0.8^a g, the Body weight ([1]; Day 42) was 24.6 ± 1.0^a g and the “ratio of liver weight/body weight compared with ALD group” value ([2]; FIG. 1) was “significantly lower”. For the same molecule, the “alcohol-induced liver enlargement in mice” value ([2]; extract: TL and TH group, RA group) was “significantly reduces”, the “serum alanine transaminase (ALT/GPT) activity induced by alcohol diet” value [3] was “significantly reduced” and the “serum alanine transaminase (ALT/GPT) activity induced by alcohol diet” value ([3]; listed as rosmarinic acid) was “significantly reduce”. The Serum total cholesterol [4, 8] was 105.9 ± 9.97 ^ab mg/dL, the Serum triglyceride [4, 8] was 107.7 ± 23.5 ^b mg/dL and the “serum total cholesterol raised by alcohol diet, compared with ALD group” value [4, 9] was “significantly reduce”. The “serum triglyceride raised by alcohol diet, compared with ALD group” value [4, 9] was “significantly reduce”, the Liver total cholesterol ([5]; alcohol liquid diet six weeks) was 6.3 ± 0.56 ^b mg/g and the Liver triglyceride ([5]; alcohol liquid diet six weeks) was 8.4 ± 1.68 ^bc mg/g. For the same molecule, the “liver cholesterol concentration in mice” value [5, 10] was “significantly reduce”, the “liver triglyceride concentration in mice” value [5, 10] was “significantly reduce” and the “production of liver lipid peroxides induced by alcohol diet” value ([6]; extract: TH group, no significant difference (p>0.05)) was “tendency to reduce”. For the same molecule, the MDA ([6]; liver, alcohol liquid diet six weeks) was 5.00 ± 0.90 ^ab mM/g, the “liver pathological examination (H&E section)” value [7] was “only a few fat vacuoles and macrophage infiltration around the central vein” and the “liver pathological examination (H&E section)” value ([7]; listed as rosmarinic acid) was “improves the effects of alcoholic fatty liver and cell damage”.
